The data set relates to HEK-293T. Kind of data set: Incucyte cell viability with HEK293T. Also: filed as whole numbers so only -1 and 0 and 1 occur. As to conditions: human, 10 µM, compound concentration 10 uM. Format: toxicity, cell-based.
Setting [1] is: 0 h, replicate number 1, timepoint 0 hours.
[2] abbreviates: 18 h, replicate number 1, timepoint 18 hours.
[3] abbreviates: 24 h, replicate number 1, timepoint 24 hours.
Where [4] appears, read: 6 h, replicate number 1, timepoint 6 hours.
Setting [5] is: 12 h, replicate number 1, timepoint 12 hours.
The mark [6] stands for this setting: 0 h, replicate number 2, timepoint 0 hours.

Consider `Nc1c(C(=O)NCc2ccc(C(=O)NCCCC3CCCCC3)cc2)cnn1-c1ccccc1` [SR-318], for which the “Growth Rate” value reads like this: under setting [1], 0; (6 h, replicate number 2, timepoint 6 hours) 0; (12 h, replicate number 2, timepoint 12 hours) 0; under setting [2], 1; (18 h, replicate number 2, timepoint 18 hours) 0; under setting [3], 0.
`C=CC(=O)Nc1cc2c(Nc3ccc(F)c(Cl)c3)ncnc2cc1OCCCN1CCOCC1.Cl.Cl` [CANERTINIB DIHYDROCHLORIDE]: the “Growth Rate” value under setting [4] was found to be 0, the “Growth Rate” value under setting [5] amounted to 0, the “Growth Rate” value under setting [2] was determined as 0 and the “Growth Rate” value under setting [3] is reported as 0.
As to `CNc1nc(NCc2ccc(NS(C)(=O)=O)cc2Cl)cc(-c2ccccn2)n1`, the “Growth Rate” value by setting is: under setting [1], 1; under setting [6], 0; under setting [4], 0; under setting [5], 0; under setting [2], 0; under setting [3], 0.
Regarding `CN1CCN(CCOc2cc(OC3CCOCC3)c3c(Nc4c(Cl)ccc5c4OCO5)ncnc3c2)CC1` [SARACATINIB], the “Growth Rate” value by setting is: under setting [4], 0; under setting [5], 0; under setting [2], 0; under setting [3], 0.
For the compound `CC(C)(O)CNc1ncc(-c2ccnc(Nc3ccnc(Cl)c3)n2)c(CC2CC2)n1`, the “Growth Rate” value reads like this: under setting [6], 1; under setting [4], 0; under setting [5], 0; under setting [2], 0; under setting [3], 0.
With `CN(C)CC#Cc1ccc(OCCCc2sc(N3CCc4cccc(C(=O)Nc5nc6ccccc6s5)c4C3)nc2C(=O)O)c(F)c1` [A-1155463], the “Growth Rate” value came to 0 under setting [1]; 1 under setting [6]; 1 (24 h, replicate number 2, timepoint 24 hours).
As to `COc1ncc(-c2ccc3nccc(-c4ccnnc4)c3c2)cc1NS(=O)(=O)c1ccc(F)cc1F` [OMIPALISIB], the “Growth Rate” value runs as follows: under setting [4], 0; under setting [5], 0; under setting [2], 0; under setting [3], 0.
For `C[C@@]1(C(=O)Nc2ccc(F)nc2)CCCN1c1nc(Nc2cc(C3CC3)n[nH]2)c2cccn2n1` [BMS-754807], the “Growth Rate” value worked out at 0 under setting [4], 0 under setting [5], 0 under setting [2] and 0 under setting [3].
On to `O=C(NCCN1CCOCC1)c1ccc2c(c1)C(=O)c1ccc(Nc3ccc(F)c(NC(=O)c4ccccc4)c3)cc1CC2` [FS-694], for which the “Growth Rate” value by setting is: under setting [6], 0; under setting [4], 0; under setting [5], 0; under setting [2], 0; under setting [3], 0.
Take `CN1CCC[C@@H]1CCO[C@](C)(c1ccccc1)c1ccc(Cl)cc1.O=C(O)/C=C/C(=O)O` [CLEMASTINE FUMARATE]: the “Growth Rate” value under setting [6] is on record as 1; the “Growth Rate” value under setting [4] came to 0; the “Growth Rate” value under setting [5] was 0; the “Growth Rate” value under setting [2] turned out to be 0; the “Growth Rate” value under setting [3] is 0.
